Changes are numbered by the printed parent chain. Calls of active or inactive are those of the source. No cut-off for these calls is given here.
Experiments:
Saccharomyces cerevisiae = test: Induction of yeast Gap1 L404 mutant-mediated amino acid uptake at 2 mM in presence of 10 mM MTSEA treated before compound addition
[1] = system: T1, General amino-acid permease GAP1 (Saccharomyces cerevisiae), P19145 [N391C]; test: Activation of yeast Gap1 N391C mutant-mediated amino acid uptake at 10 mM
T1 sequence (whole entry): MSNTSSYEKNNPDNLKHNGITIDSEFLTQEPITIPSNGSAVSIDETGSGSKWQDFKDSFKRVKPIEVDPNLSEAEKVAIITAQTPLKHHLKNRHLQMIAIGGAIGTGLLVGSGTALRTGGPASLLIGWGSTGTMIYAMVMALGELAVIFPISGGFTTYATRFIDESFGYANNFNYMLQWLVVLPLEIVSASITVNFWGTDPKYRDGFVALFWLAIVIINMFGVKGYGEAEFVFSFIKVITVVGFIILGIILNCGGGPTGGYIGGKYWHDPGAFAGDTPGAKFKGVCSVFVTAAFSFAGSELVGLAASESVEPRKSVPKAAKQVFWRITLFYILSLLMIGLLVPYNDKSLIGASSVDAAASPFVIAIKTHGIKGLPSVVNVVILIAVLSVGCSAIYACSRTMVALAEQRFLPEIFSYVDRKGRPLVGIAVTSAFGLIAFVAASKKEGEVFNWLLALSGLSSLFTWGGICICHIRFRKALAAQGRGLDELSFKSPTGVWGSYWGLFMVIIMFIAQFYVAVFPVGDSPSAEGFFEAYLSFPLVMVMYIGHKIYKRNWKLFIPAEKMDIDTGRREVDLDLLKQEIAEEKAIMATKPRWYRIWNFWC

[2] = system: T2, General amino-acid permease GAP1 (Saccharomyces cerevisiae), P19145 [L383C]; test: Induction of yeast Gap1 L383C mutant-mediated trehalose activation at 10 mM
T2 sequence (whole entry): T1 sequence (whole entry) with L383C, C391N

[3] = system: T3, General amino-acid permease GAP1 (Saccharomyces cerevisiae), P19145 [V381C]; test: Induction of yeast Gap1 V381C mutant-mediated trehalose activation at 2 mM in presence of 10 mM MTSEA treated before compound addition
T3 sequence (whole entry): T1 sequence (whole entry) with V381C, C391N

[4] = system: T2, General amino-acid permease GAP1 (Saccharomyces cerevisiae), P19145 [L383C]; test: Induction of yeast Gap1 L383C mutant-mediated trehalose activation at 2 mM in presence of 10 mM MTSEA treated before compound addition
[5] = system: General amino-acid permease GAP1 (Saccharomyces cerevisiae), P19145 [V389C]; test: Induction of yeast Gap1 V389C mutant-mediated amino acid uptake at 2 mM in presence of 10 mM MTSEA treated before compound addition
General amino-acid permease GAP1 (Saccharomyces cerevisiae), P19145 [V389C], sequence (P19145 whole entry V389C): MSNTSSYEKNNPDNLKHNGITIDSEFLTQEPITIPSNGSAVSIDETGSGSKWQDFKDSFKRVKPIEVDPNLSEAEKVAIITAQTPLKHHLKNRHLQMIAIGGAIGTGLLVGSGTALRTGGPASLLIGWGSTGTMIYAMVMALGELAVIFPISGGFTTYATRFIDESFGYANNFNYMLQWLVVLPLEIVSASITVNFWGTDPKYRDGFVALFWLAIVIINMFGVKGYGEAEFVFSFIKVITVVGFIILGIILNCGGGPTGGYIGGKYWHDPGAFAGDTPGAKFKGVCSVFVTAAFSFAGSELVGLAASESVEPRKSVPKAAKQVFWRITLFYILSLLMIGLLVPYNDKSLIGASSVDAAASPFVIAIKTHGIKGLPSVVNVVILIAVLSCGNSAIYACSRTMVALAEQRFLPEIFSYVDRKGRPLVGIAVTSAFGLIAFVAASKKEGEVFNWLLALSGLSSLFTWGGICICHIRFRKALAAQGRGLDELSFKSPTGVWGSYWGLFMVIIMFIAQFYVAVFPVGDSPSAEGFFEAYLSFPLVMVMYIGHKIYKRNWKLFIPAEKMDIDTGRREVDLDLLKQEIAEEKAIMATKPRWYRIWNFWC

[6] = system: T3, General amino-acid permease GAP1 (Saccharomyces cerevisiae), P19145 [V381C]; test: Induction of yeast Gap1 V381C mutant-mediated amino acid uptake at 2 mM in presence of 10 mM MTSEA treated before compound addition
[7] = system: T2, General amino-acid permease GAP1 (Saccharomyces cerevisiae), P19145 [L383C]; test: Induction of yeast Gap1 L383C mutant-mediated amino acid uptake at 2 mM in presence of 10 mM MTSEA treated before compound addition
[8] = system: T4, General amino-acid permease GAP1 (Saccharomyces cerevisiae), P19145 [S398C]; test: Induction of yeast Gap1 S398C mutant-mediated amino acid uptake at 2 mM in presence of 10 mM MTSEA treated before compound addition
T4 sequence (whole entry): T1 sequence (whole entry) with C391N, S398C

- Activity (Saccharomyces cerevisiae): Active
- Activity [1]: inactive
- Activity [2]: inactive
- inhibition [3]: Active
- inhibition [4]: Active
- inhibition [5]: inactive
- Activity [6]: Active
- Activity [7]: Active
- Activity [8]: Active
Compound: NC(=O)NCCC[C@H](N)C(=O)O

Source: ChEMBL document CHEMBL1221220, “Transport and signaling via the amino acid binding site of the yeast Gap1 amino acid transceptor” (Nat Chem Biol, 2009)
